Test results published in the CheMixHub viscosity set.
Where “and” joins values, the source holds several entries; their conditions need not be identical. Equal entries are not always repeated.

Experiments:
[1] = xn = mol fraction of the nth substance listed

C1C[C@@H]2[C@H]3CC[C@H](C3)[C@@H]2C1
viscosity
Settings	293.15 K	298.15 K	303.15 K	308.15 K
100 kPa	2.974 mPa·s and 3.07 mPa·s	2.785 mPa·s and 2.694 mPa·s	2.535 mPa·s and 2.454 mPa·s	2.243 mPa·s
101 kPa	–	2.77 mPa·s	–	–
101.33 kPa	–	2.769 mPa·s	–	2.283 mPa·s

CC(=O)C=C(C)C
Settings	viscosity [mPa·s]
298.15 K, 101 kPa	0.876

CC12CCC(CC1)C(C)(C)O2
101 kPa
Settings	viscosity [mPa·s]
298.15 K	2.6
303.15 K	2.066
308.15 K	1.856
313.15 K	1.676
318.15 K	1.73

CCC(=O)O
viscosity
Settings	293.15 K	298.15 K	303.15 K	313.15 K	318.15 K	323.15 K
101 kPa	1.1 mPa·s and 1.07 mPa·s and 1.102 mPa·s	–	–	–	–	0.75 mPa·s
101.33 kPa	1.103 mPa·s and 1.156 mPa·s and 1.101 mPa·s	1.03 mPa·s	0.96 mPa·s and 0.944 mPa·s	0.8453 mPa·s and 0.901 mPa·s and 0.84 mPa·s	0.783 mPa·s	0.8102 mPa·s

CCC(C)c1ccccc1 (stereo not drawn)
102 kPa
Settings	viscosity [mPa·s]
293.15 K	0.932
303.15 K	0.812
313.15 K	0.712
323.15 K	0.632

CCCCCCCCCCCCC
viscosity
Settings	293.15 K	298.15 K	308.15 K	318.15 K	323.15 K
100 kPa	1.8 mPa·s and 1.803 mPa·s	1.71 mPa·s	1.428 mPa·s and 1.319 mPa·s	1.215 mPa·s	1.124 mPa·s and 1.1 mPa·s and 1.104 mPa·s
103 kPa	–	1.63 mPa·s	1.356 mPa·s	1.146 mPa·s	–

CCCCCCCN
Settings	viscosity [mPa·s]
303.15 K, 101 kPa	0.8789

CCCCN(CCO)CCCC
Settings	viscosity [mPa·s]
303.15 K, 100 kPa	4.6

CCCCN(CCO)CCO
101 kPa
Settings	viscosity [mPa·s]
303.15 K	41.29
308.15 K	31.59
313.15 K	24.47
318.15 K	19.39
323.15 K	15.47

CCCC[n+]1ccc(C)cc1.F[B-](F)(F)F
101 kPa
Settings	viscosity [mPa·s]
298.15 K	196.2
313.15 K	80.85
323.15 K	50.22

CNN
Settings	viscosity [mPa·s]
293.15 K, 101.3 kPa	0.96

Cc1ccccc1Cl
viscosity
Settings	298.15 K	303.15 K	308.15 K	313.15 K	318.15 K
100 kPa	0.971 mPa·s	0.886 mPa·s	0.808 mPa·s and 0.857 mPa·s	0.728 mPa·s	0.642 mPa·s and 0.763 mPa·s
101 kPa	–	0.886 mPa·s	0.808 mPa·s	0.741 mPa·s and 0.728 mPa·s	0.642 mPa·s

ClCCCCCl
101 kPa
Settings	viscosity [mPa·s]
298.15 K	1.319
303.15 K	1.218
308.15 K	1.128
313.15 K	1.043

NN
viscosity [mPa·s]
Settings	293.15 K	303 K	313 K
101 kPa	–	0.85	0.75
101.3 kPa	0.94	–	–

Nc1cccc(Cl)c1
101 kPa
Settings	viscosity [mPa·s]
298.15 K	3.495
303.15 K	3.256

Nc1cccc(Cl)c1 + O=[N+]([O-])c1ccccc1
viscosity [mPa·s], [1], 100 kPa
Settings	x1 = 0.5896	x1 = 0.6785	x1 = 0.7825
303.15 K	–	–	3.915
318.15 K	2.615	2.755	–

OC[C@@H](O)[C@@H](O)CO + OC[C@@H](O)[C@H](O)[C@@H](O)CO
[1], 101 kPa, x1 = 0.36
Settings	viscosity [mPa·s]
313 K	31330
318 K	18000
323 K	10110

[F-].[Na+] + [2H]O[2H]
viscosity [mPa·s], [1], 101 kPa
Settings	298.15 K	308.15 K	318.15 K
x1 = 0.0054	1.159	0.913	0.747
x1 = 0.0122	1.246	0.98	0.8
x1 = 0.0163	1.326	1.043	0.857

[K+].[O]=[Mn](=[O])(=[O])[O-] + [2H]O[2H]
viscosity [mPa·s], [1], 101 kPa
Settings	x1 = 0.0021	x1 = 0.0034	x1 = 0.0052	x1 = 0.0062
298.15 K	1.101	1.092	1.079	1.082
308.15 K	0.873	0.861	0.853	0.85
318.15 K	0.717	0.709	0.703	0.704

CCCC[n+]1ccccc1.[Cl][Al-]([Cl])([Cl])[Cl] + [Al+3].[Cl-].[Cl-].[Cl-]
viscosity [mPa·s], [1], 101 kPa
Settings	293.15 K	298.15 K	303.15 K	308.15 K	313.15 K	318.15 K	323.15 K
x2 = 0.46	29.8	26.4	22.8	19.9	17.6	15.8	13.8
x2 = 0.57	29	25.2	22.1	19.9	17.6	15.6	14.2

C1C[C@@H]2[C@H]3CC[C@H](C3)[C@@H]2C1 + c1ccc2c(c1)CCCC2
viscosity [mPa·s], [1], 100 kPa
Settings	x1 = 0.1003	x1 = 0.1991	x1 = 0.3022	x1 = 0.407	x1 = 0.4996	x1 = 0.5992	x1 = 0.7019	x1 = 0.7987	x1 = 0.8983
293.15 K	2.201	2.214	2.254	2.299	2.355	2.438	2.543	2.668	2.807
298.15 K	1.994	2.008	2.043	2.088	2.139	2.214	2.307	2.416	2.546
303.15 K	1.816	1.831	1.864	1.904	1.952	2.019	2.106	2.202	2.319
308.15 K	1.664	1.678	1.708	1.746	1.79	1.851	1.929	2.018	2.122
313.15 K	1.531	1.545	1.574	1.608	1.648	1.704	1.775	1.855	1.95
318.15 K	1.414	1.428	1.454	1.486	1.523	1.574	1.639	1.712	1.798
323.15 K	1.311	1.325	1.349	1.379	1.413	1.459	1.519	1.586	1.663

CCC(=O)O + c1ccccc1
[1], 101.33 kPa
Settings	viscosity
293.15 K, x1 = 0.2	0.66 mPa·s and 0.66 mPa·s
293.15 K, x1 = 0.4	0.7 mPa·s
293.15 K, x1 = 0.5	0.734 mPa·s and 0.734 mPa·s
293.15 K, x1 = 0.8	0.889 mPa·s
303.15 K, x1 = 0.2	0.575 mPa·s
303.15 K, x1 = 0.4	0.61 mPa·s
303.15 K, x1 = 0.5	0.639 mPa·s
303.15 K, x1 = 0.8	0.774 mPa·s
308.15 K, x1 = 0.0534	0.5535 mPa·s
308.15 K, x1 = 0.1063	0.5551 mPa·s
308.15 K, x1 = 0.1575	0.5617 mPa·s
308.15 K, x1 = 0.2	0.542 mPa·s and 0.542 mPa·s
308.15 K, x1 = 0.2079	0.5677 mPa·s
308.15 K, x1 = 0.3318	0.5849 mPa·s
308.15 K, x1 = 0.4	0.575 mPa·s
308.15 K, x1 = 0.4118	0.5998 mPa·s
308.15 K, x1 = 0.5	0.602 mPa·s and 0.602 mPa·s
308.15 K, x1 = 0.5132	0.6282 mPa·s
308.15 K, x1 = 0.6132	0.6564 mPa·s
308.15 K, x1 = 0.7107	0.7012 mPa·s
308.15 K, x1 = 0.8	0.729 mPa·s
308.15 K, x1 = 0.8085	0.7408 mPa·s
308.15 K, x1 = 0.8566	0.7662 mPa·s
308.15 K, x1 = 0.9045	0.8033 mPa·s
308.15 K, x1 = 0.9524	0.8347 mPa·s
318.15 K, x1 = 0.2	0.48 mPa·s
318.15 K, x1 = 0.4	0.51 mPa·s
318.15 K, x1 = 0.5	0.533 mPa·s
318.15 K, x1 = 0.8	0.643 mPa·s

CCCOC(=O)CC + c1ccccc1
[1], 298.15 K, 101.33 kPa
Settings	viscosity [mPa·s]
x1 = 0.1478	0.583
x1 = 0.2542	0.583
x1 = 0.3452	0.586
x1 = 0.4049	0.588
x1 = 0.616	0.604
x1 = 0.7421	0.616
x1 = 0.8096	0.622
x1 = 0.878	0.63
x1 = 0.9369	0.635

CCC(=O)O + c1ccncc1
[1], 298.15 K, 101 kPa
Settings	viscosity [mPa·s]
x1 = 0.0999	1
x1 = 0.1959	1.135
x1 = 0.2826	1.311
x1 = 0.3927	1.587
x1 = 0.5016	1.943
x1 = 0.6401	2.388
x1 = 0.7118	2.48
x1 = 0.7972	2.353
x1 = 0.8994	1.755
